The values below come from ChEMBL document CHEMBL1201862, “PubChem BioAssay data set” (2004).

Molecules are shown by their SMILES. Activity calls are given as the source filed them. Bounds are passed on as bounds.

For assay [1], the target named is 1-acylglycerol-3-phosphate O-acyltransferase ABHD5/Perilipin-5 (Homo sapiens, UniProt Q00G26+Q8WTS1). The assay can be described thus: Luminescence-based biochemical high throughput dose response assay for inhibitors of the interaction of the lipase co-activator protein, abhydrolase domain containing 5 (ABHD5) with perilipin-5 (MLDP; PLIN5) (2K validation set). [Related pubchem assays (depositor defined):AID493035, AID493241].

The target of assay [2] is Perilipin-1/ABHD5 (Homo sapiens, UniProt O60240+Q8WTS1). The assay is described as follows: Luminescence-based biochemical high throughput dose response assay for inhibitors of the interaction of the lipase co-activator protein, abhydrolase domain containing 5 (ABHD5) with perilipin-1 (PLIN1) (2K validation set). [Related pubchem assays (depositor defined):AID493027, AID493057].

In assay [3] the test system is Vero. The assay can be described thus: cytotoxicity of synthesized analogs in Vero 76, SAR follow-up, cytotoxicity control for West Nile virus antiviral project, Vero 76 cells (AID 2414). The class given is functional. The settings on record: Chlorocebus sabaeus.
The test system of assay [4] is Vero. The assay can be described thus: West Nile virus cytopathic effect inhibition, cell-based (AID 2419). The conditions noted are these: Chlorocebus sabaeus. It is filed as functional. For orientation: Damage to the host cells serves as the signal in cytopathic effect assays.
In assay [5] the test system is Vero. The assay is described as follows: West Nile virus CPE inhibition, SAR follow-up, cell-based, synthesized analogs (AID 2238). The settings on record: Chlorocebus sabaeus. The class given is functional.
Assay [6] in a line: A Cell Based Assay for the Identification of Probe candidate Compounds with Anti- Venezuelan Equine Encephalitis virus. [Related pubchem assays: 2409, 2419, 1621, 2238, 2405, 2024, 2065, 2402, 2414, 1635, 1650, 2244 ]. It is filed as functional.
In assay [7] the test system is Vero. The assay can be described thus: cytotoxicity of synthesized analogs in Vero cells, SAR follow-up, cytotoxicity control for West Nile virus antiviral project, cell-based, set II (AID 2402). It is filed as functional. The settings on record: Chlorocebus sabaeus.
Assay [8] deals with Vero. The assay can be described thus: Vero E6 cell cytotoxicity, SAR follow-up, cytotoxicity control for West Nile virus antiviral project, synthesized analogs (AID 2244). The class given is functional. The settings on record: Chlorocebus sabaeus.
Assay [9] has as its target Large T antigen (Simian virus 40, UniProt P03070). The assay is described as follows: A confirmatory biochemical assay using the ADP-Hunter methodology, purified TAg, and ATP to quantify activity of synthesized compounds that inhibit the ATPase activity of Tag (3). [Related pubchem assays (depositor defined):AID1903, AID1909, AID2102, AID2501, AID2615, AID2775, AID435001, AID449729]. Details: species or system Betapolyomavirus macacae.

Assay [10] deals with Mannose-6-phosphate isomerase (Homo sapiens, UniProt P34949). The assay can be described thus: inhibitors of human PMI, primary screen, biochemical, fluorescence intensity, coupled assay (AID 1209).
Assay [11] has as its target CAAX prenyl protease 2 (Saccharomyces cerevisiae S288c, UniProt Q03530). The class given is biochemical.
The target of assay [12] is T1, Kappa-type opioid receptor (Homo sapiens, UniProt P41145). It is filed as functional.
In assay [13] the target is T1, Kappa-type opioid receptor. It is filed as functional. This is another data set of the same source.
Assay [14] concerns the target Mu-type opioid receptor (Homo sapiens, UniProt P35372). The assay can be described thus: HTS Image-Based Screen for Agonists of the MOR Receptor. [Related pubchem assays (depositor defined):AID1777, AID1785, AID1786, AID2133]. The class given is functional.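 Further: imaging of beta-arrestin GFP recruitment into spots after receptor activation.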
For assay [15], the target named is T1, Kappa-type opioid receptor. It is filed as functional. The source holds these as a separate data set.
The target of assay [16] is T2, Delta-type opioid receptor (Homo sapiens, UniProt P41143). The assay is described as follows: HTS Image-Based Screen for Antagonists of the DOR Receptor. [Related pubchem assays (depositor defined):AID1777, AID1785, AID1786, AID2133]. The class given is functional.
Assay [17] has as its target T2, Delta-type opioid receptor. The assay is described as follows: HTS Image-Based Screen for Agonists of the DOR Receptor. [Related pubchem assays (depositor defined):AID1777, AID1786, AID2133]. It is filed as functional.
Assay [18] has as its target T3, Carboxy-terminal domain RNA polymerase II polypeptide A small phosphatase 1 (Homo sapiens, UniProt Q9GZU7).
T3 sequence (Q9GZU7 whole entry): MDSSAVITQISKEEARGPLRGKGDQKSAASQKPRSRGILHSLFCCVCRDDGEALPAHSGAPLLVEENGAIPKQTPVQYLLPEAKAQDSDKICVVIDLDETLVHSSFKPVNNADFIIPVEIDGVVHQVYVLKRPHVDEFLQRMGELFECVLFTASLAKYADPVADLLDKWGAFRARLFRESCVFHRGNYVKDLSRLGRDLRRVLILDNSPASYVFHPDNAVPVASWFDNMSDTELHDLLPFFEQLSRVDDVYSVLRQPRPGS
The assay is described as follows: inhibitors of CTDSP1, concentration-response testing, biochemical assay, absorbance-based, actives from ultra-high-throughput screening (AID 540297). The class given is functional.

For assay [19], the target named is ORF 73 (Human herpesvirus 8, UniProt O40947). The assay can be described thus: inhibitors of C-LANA binding to LBS DNA, dose response, biochemical, fluorescence polarization, cherry-picked samples (AID 504725).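 Further: fluorescence polarization of a labeled DNA duplex reporting LANA DNA binding; potency is for inhibitors that block LANA binding to the DNA.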 Details: species or system Human gammaherpesvirus 8. On the technique in general: In fluorescence polarisation assays a small probe gives low polarisation when free and higher when bound to something large.

Assay [20] can be described thus: cytotoxicity in HEK-293T cells, dose response, cytotoxicity control for BCR NF-kB inhibitor project, luminescence, B-cell screen hits (AID 489021).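 Further: HEK-293T cells carrying an NF-kB luciferase reporter; cells exposed to compound for about 14 hours before viability readout.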 It is filed as functional, cell-based.
In assay [21] the target is Female germline-specific tumor suppressor gld-1 (Caenorhabditis elegans, UniProt Q17339). The assay is described as follows: inhibitors of GLD-1 binding to TGE RNA, dose response, biochemical, fluorescence polarization, C. elegans (AID 2802).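 Further: fluorescence polarization of labeled TGE RNA bound by purified gld-1 protein.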
Assay [22] has as its target Protein Rev (Human immunodeficiency virus type 1 group M subtype B (isolate HXB2)(HIV-1), UniProt P04618). The assay can be described thus: inhibitors of Rev binding to RRE RNA, dose response, biochemical, fluorescence polarization, HIV-1 (AID 434976). Details: species or system Human immunodeficiency virus 1.

T1 sequence (P41145 whole entry): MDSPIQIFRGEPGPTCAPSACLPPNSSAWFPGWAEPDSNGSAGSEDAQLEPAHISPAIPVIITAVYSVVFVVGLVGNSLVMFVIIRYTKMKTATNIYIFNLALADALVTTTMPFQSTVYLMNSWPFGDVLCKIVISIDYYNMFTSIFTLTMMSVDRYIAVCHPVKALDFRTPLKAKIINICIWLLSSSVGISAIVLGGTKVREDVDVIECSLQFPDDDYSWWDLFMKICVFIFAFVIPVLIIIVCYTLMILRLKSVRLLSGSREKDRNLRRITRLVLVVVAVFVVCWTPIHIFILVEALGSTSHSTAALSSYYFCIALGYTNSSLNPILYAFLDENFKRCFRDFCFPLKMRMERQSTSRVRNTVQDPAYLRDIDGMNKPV
T2 sequence (P41143 whole entry): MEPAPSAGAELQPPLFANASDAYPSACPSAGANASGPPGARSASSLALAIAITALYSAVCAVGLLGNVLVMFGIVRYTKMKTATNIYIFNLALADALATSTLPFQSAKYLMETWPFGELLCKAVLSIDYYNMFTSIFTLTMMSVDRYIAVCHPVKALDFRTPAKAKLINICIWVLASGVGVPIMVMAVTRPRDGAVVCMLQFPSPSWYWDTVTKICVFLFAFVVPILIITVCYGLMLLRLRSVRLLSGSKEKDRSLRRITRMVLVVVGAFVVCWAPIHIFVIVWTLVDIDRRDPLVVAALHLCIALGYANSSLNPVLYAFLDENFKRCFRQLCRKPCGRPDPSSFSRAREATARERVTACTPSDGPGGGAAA
Sequence of Protein Rev (P04618 whole entry): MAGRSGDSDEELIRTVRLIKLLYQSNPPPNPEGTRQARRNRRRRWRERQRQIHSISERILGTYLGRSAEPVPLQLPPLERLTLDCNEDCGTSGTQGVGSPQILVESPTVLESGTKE
Sequence of Female germline-specific tumor suppressor gld-1 (Q17339 whole entry): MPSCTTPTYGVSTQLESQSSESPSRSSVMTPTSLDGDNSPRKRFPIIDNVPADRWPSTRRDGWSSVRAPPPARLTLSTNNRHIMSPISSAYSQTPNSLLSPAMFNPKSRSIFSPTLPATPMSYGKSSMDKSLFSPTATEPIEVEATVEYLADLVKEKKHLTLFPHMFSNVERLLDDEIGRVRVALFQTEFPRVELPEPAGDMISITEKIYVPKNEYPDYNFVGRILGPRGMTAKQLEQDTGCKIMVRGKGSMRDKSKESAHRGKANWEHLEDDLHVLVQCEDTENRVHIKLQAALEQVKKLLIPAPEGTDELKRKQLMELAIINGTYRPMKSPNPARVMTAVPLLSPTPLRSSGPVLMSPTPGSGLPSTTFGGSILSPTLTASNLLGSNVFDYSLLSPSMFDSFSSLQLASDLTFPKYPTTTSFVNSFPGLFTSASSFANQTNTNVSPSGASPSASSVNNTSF
Sequence of CAAX prenyl protease 2 (Q03530 whole entry): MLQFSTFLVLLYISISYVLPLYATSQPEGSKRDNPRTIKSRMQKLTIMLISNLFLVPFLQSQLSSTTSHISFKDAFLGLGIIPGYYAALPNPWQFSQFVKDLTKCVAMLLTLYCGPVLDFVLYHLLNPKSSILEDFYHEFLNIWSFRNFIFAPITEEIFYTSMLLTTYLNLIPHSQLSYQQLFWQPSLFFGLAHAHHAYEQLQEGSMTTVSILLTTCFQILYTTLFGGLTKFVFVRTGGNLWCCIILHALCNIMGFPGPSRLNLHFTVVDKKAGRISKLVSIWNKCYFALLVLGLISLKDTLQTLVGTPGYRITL
Sequence of Mannose-6-phosphate isomerase (P34949 whole entry): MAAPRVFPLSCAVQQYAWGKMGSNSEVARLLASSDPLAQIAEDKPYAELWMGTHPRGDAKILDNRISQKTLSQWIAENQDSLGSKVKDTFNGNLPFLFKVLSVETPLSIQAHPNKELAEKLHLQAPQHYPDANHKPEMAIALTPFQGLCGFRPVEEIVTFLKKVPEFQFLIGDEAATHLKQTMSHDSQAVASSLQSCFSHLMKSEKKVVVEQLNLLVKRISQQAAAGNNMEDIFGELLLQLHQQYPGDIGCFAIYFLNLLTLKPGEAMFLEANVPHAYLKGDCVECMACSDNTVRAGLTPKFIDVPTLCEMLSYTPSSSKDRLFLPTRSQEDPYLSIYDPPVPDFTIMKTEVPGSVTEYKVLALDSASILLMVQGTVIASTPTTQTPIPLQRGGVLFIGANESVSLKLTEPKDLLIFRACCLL
Sequence of ORF 73 (O40947 whole entry): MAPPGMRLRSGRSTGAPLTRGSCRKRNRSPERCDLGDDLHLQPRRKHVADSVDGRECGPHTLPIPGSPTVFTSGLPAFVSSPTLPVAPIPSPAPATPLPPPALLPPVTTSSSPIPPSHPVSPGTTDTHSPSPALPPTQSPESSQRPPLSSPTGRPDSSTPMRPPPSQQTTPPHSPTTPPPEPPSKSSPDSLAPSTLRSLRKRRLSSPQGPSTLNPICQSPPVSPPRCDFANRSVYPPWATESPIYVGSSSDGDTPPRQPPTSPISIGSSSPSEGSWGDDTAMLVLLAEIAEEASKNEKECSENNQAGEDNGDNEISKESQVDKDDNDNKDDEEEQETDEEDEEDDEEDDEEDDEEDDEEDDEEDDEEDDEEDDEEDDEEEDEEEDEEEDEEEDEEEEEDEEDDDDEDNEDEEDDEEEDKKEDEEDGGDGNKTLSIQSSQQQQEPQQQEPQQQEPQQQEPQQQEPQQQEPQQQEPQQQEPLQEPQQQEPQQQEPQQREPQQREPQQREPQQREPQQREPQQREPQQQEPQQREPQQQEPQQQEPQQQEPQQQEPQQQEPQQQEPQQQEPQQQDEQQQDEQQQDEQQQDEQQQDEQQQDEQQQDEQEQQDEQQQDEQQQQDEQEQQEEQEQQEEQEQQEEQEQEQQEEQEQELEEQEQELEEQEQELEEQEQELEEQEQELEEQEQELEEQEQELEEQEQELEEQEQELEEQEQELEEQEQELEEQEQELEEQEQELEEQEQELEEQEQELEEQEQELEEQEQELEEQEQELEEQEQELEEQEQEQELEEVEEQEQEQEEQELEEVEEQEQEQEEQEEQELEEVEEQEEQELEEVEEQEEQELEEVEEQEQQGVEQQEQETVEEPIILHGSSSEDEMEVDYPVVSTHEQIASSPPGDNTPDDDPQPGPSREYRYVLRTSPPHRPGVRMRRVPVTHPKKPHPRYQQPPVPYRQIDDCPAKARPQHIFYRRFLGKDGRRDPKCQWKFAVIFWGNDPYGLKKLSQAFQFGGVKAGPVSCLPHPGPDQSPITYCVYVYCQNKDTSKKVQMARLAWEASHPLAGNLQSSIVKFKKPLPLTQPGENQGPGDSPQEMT
Sequence of Large T antigen (P03070 whole entry): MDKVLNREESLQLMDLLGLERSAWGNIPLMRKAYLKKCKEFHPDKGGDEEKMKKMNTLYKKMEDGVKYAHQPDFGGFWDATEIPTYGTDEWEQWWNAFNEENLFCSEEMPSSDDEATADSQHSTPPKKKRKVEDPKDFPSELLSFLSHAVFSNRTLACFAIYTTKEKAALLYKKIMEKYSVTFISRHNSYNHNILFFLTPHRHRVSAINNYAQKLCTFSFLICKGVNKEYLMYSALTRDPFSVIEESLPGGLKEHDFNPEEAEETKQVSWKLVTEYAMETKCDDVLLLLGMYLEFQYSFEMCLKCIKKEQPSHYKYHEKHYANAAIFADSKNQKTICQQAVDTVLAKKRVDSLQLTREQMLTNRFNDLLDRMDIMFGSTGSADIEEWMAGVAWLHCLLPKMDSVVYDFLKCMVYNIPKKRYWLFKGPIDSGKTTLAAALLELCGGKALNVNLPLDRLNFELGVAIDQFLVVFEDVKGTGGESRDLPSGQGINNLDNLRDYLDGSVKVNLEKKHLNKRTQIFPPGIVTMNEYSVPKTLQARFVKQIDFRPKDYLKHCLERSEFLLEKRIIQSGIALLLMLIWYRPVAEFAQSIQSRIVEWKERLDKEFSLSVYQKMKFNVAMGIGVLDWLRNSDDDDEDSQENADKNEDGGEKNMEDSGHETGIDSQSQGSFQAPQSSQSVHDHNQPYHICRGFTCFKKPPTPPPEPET
Sequence of Mu-type opioid receptor (P35372 whole entry): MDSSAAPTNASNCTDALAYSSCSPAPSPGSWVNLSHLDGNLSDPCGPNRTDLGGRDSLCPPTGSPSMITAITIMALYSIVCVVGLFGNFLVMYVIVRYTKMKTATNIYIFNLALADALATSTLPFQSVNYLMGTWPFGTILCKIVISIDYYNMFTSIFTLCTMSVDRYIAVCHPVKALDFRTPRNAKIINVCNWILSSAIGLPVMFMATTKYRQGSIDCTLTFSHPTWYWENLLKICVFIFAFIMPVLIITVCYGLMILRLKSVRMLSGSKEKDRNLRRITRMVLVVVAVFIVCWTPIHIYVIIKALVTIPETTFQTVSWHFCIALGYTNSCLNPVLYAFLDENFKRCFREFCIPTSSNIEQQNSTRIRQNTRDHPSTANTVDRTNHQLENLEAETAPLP

In the case of `CCCCC/C=C\C[C@H](O)/C=C/c1cccc(C[C@H](O)CCCCO)n1`, the results for the IC50 in assay [1] and in [2] were 5.28 µM (active) and 5.05 µM (active), respectively.

`COc1ccc(-c2csc(N(CCCN(C)C)C(=O)c3ccccc3Cl)n2)cc1`: the CC50 (commonly the concentration at which the toxic effect on the cells reaches its halfway point) in assay [3] is 20.2 µM (active); in [7], 9.54 µM (active); in assay [8], 28.4 µM (active). The IC50 (as a rule, the concentration that gives 50% inhibition) is > 25 µM (active) in assay [4], 29.5 µM (active) in assay [5] and 5.37 µM (active) in assay [6].

Consider `Oc1ccc(Cc2ccc(O)cc2)cc1`, for which the half-inhibitory concentration (IC50) in [9] is 70.1 µM (active).

For the compound `c1ccc(Nc2cccc(Nc3ccccc3)n2)cc1`, in assay [10], the IC50 was > 50 µM (not active). For the same compound, the half-maximal activity concentration (AC50) (as a rule, the midpoint of the concentration-response curve, whichever way the signal moves) in [11] was 13.3 µM (active).

Take `CCC(C)(C(=O)NC1CCCCC1)N(Cc1cccs1)C(=O)c1ccccn1` (configuration not stated): the IC50 in assay [12] was > 5 µM (inactive); in assay [16], > 32 µM (inactive). Moreover, the EC50 (usually the concentration at which the effect is half-maximal) was 0.0599 µM in assay [13], > 32 µM (inactive) in [14], below 0.5 µM in assay [15] and > 32 µM (inactive) in assay [17].

As to `N=C1/C(=C/c2ccc(-c3cccc(C(=O)O)c3)o2)C(=O)N=C2SC(CC(=O)N3CCOCC3)=NN12`, the IC50 in assay [18] was 3.21 µM (active). In addition, in assay [19], the AC50 was 67.7 µM (active).

Regarding `O=C1CCCc2c1[nH]c1ccc(CN3CCCCC3)cc21`, the IC50 in assay [20] is > 80 µM (inactive).

In the case of `CCOC(=O)c1cc2c(ccn2C)n1CC(=O)N(Cc1ccccc1)c1ccc(F)cc1`, the results for the IC50 in assay [21] and in assay [22] were > 59.6 µM (inactive) and > 75.4 µM (not active), respectively.
